# Experimental data as given in PubChem BioAssay AID1996.
# Conditions: buffer; pH 7.4; 200.0 µM
row,solubility kinetic [µg/mL],SMILES
1,> 40.2,Cc1ccc(S(=O)(=O)N2CCNC(=O)C2)c(C)c1
2,54.4,Cl.OC(CN1CCNCC1)Cn1c2ccccc2c2ccccc21 (stereo unspecified)
3,5.6,Cc1ccc(C)c(S(=O)(=O)N2CCN(c3ncnc4sccc34)CC2)c1
4,> 44.3,COc1cc(OC)c(C=O)c(OC(=O)N2CCOCC2)c1
5,> 44,O=C1CCCN1C(=O)CSc1ncnc2sccc12
6,< 0.7,CC(=O)c1cccc(NC(=O)c2ccc(OC3CSC3)cc2)c1
7,> 50.9,O=S(=O)(c1ccccc1)N(Cc1ccccn1)Cc1ccccn1
8,> 48.8,CC(=O)c1cccc(NC(=O)CCC(=O)Oc2ccc(C)cc2)c1
9,> 42.9,O=C(CSc1nccc(=O)[nH]1)c1cc2ccccc2o1
10,2.1,O=C(Cn1c(=O)oc2ccccc21)Nc1cccc(Cl)c1
11,6.3,COc1ccccc1OCCN(C#N)c1nc(N(C)C)nc(N(C)C)n1
12,2.6,O=C(Nc1ccc(Cl)c(S(=O)(=O)N2CCOCC2)c1)c1ccc2c(c1)OCO2
13,31,CCOc1ccc(N(CC(=O)N2CCCCCC2)S(C)(=O)=O)cc1
14,29.3,COc1ccc(Br)cc1CN1CCSCC1
15,1.7,Cc1noc(C(=O)Nc2cc(Cl)ccc2O)c1Cl
16,> 45.1,CC1(C)C2CCC(C2)C1(C)NC(=O)CN1CCCC1.Cl (stereo unspecified)
17,37.9,CSc1nc2nc3c(cc2c(=O)n1-c1ccccc1C)CCCC3
18,28.5,c1ccc2cc(Cn3ccnc3)ccc2c1
19,19.1,CC(C)NC(=O)c1ccccc1NC(=O)Cc1ccc([N+](=O)[O-])cc1
20,8.3,COc1ccccc1CCN=C(N)NS(=O)(=O)c1ccc(C)c(C)c1
21,< 0.7,Cc1sc2nc(-c3ccc(Br)cc3)oc(=O)c2c1C
22,13.9,COc1ccc(C(=O)Nc2cnccn2)cc1[N+](=O)[O-]

row,solubility kinetic [µg/mL],SMILES
1,2.5,Cc1ccccc1N1C(=O)c2cccc3cccc(c23)C1=O
2,> 44.1,CCCCCCCN1C2=NCCN2c2ccccc21.Cl
3,1.3,O=C(NC(=S)Nc1ccc(F)cc1)C1CCCCC1
4,1.9,COc1ccccc1NS(=O)(=O)c1ccc2oc(SC)nc2c1
5,> 35.7,CN(C)C(=S)Nc1ccc2c(c1)OCCO2
6,9.1,COc1ccccc1N1C(=O)C=C(Sc2nc(C)cc(C)n2)C1=O
7,> 43.7,Cc1ccsc1/C=N/NC(=O)CNC(=O)c1ccco1
8,13.9,CC(NS(=O)(=O)c1ccc2[nH]c(=O)c(=O)[nH]c2c1)C(=O)O (stereo unspecified)
9,3,O=c1cc(/N=C/c2coc3cc(Br)ccc3c2=O)[nH]c(=S)[nH]1
10,> 39.2,CC1CCCN(C(=O)c2ccc3c(c2)OCCO3)C1 (stereo unspecified)
11,> 28.1,Nc1cccc(Oc2cnccn2)c1
12,< 0.3,CN1C(=O)N(C)c2ccc(Br)c3cccc1c23
13,42.3,CCOc1ccc(C(=O)N2CCN(c3ncccn3)CC2)cc1
14,4.8,CNc1snc(C)c1C(=O)OC(C)C(=O)Nc1cccc(C)c1 (stereo unspecified)
15,> 48.5,Cc1ccc(NC(=O)CN2CCN(Cc3ccccc3)CC2)cc1
16,> 47.2,COc1ccc(S(=O)(=O)NCC(=O)NC2CC2)cc1OC
17,1.6,COc1ccc(CNC(=O)CC23CC4CC(CC(C4)C2)C3)cc1
18,> 35.6,N#Cc1ccccc1NC(=O)Nc1ccccc1
19,43.6,CC1CN(S(=O)(=O)c2cccc(C(F)(F)F)c2)CC(C)O1 (stereo unspecified)
20,0.6,O=C(CC12CC3CC(CC(C3)C1)C2)NCc1ccccc1
21,> 38.3,CN(C)/C=N/c1ncc(C(=O)OC(C)(C)C)s1
22,12.2,COc1ccc(OC)c(Nc2c3ccccc3nc3ccccc23)c1

row,solubility kinetic [µg/mL],SMILES
1,12.1,COc1cc(C)c(CN2CCSCC2)cc1C
2,41.7,COC(=O)CN(c1cccc(C)c1)S(=O)(=O)c1ccccc1
3,38.4,CCCNC(=O)c1ccc2c(c1)ncn2-c1cc(C)cc(C)c1
4,4.1,COc1cccc(N2C(=O)/C(=C\c3cccs3)NC2=S)c1
5,17,CCOc1ncccc1C(=O)OCC(=O)c1ccc(C)c(C)c1
6,> 43.1,COc1ccc(NC(=O)NCc2cccnc2)c(OC)c1
7,18.1,COc1ccc(C)cc1S(=O)(=O)N1CCc2ccccc2C1
8,42.8,COc1ccc(CCNc2ccc(S(N)(=O)=O)cn2)cc1
9,> 41.6,Fc1cccc(Cc2noc(CN3CCOCC3)n2)c1
10,0.2,COCc1cc(=O)[nH]c(/N=C(\N)Nc2ccc(Cl)c(Cl)c2)n1
11,> 50.1,COc1ccc(CCC(=O)NCc2ccccc2Cl)cc1OC
12,59.3,COc1cc(C(=O)NC(=S)N(CCC#N)Cc2cccnc2)cc(OC)c1OC
13,8.5,CC1(C)CC(=O)C=C(Nc2ccc(Cl)c(Br)c2)C1
14,> 39.6,N#Cc1c(Cl)cccc1N1CCC(C(N)=O)CC1
15,> 42.7,COCCNC(=O)C(NC(=O)C1CCCCC1)C(C)C (stereo unspecified)
16,2,O=C(CSc1nc2ccccc2o1)Nc1nccs1
17,3.3,COc1cc2ncnc(NCc3ccc4c(c3)OCO4)c2cc1OC
18,3.4,Cc1ccc(OCC2Cn3c(nc4c3c(=O)[nH]c(=O)n4C)O2)cc1C (stereo unspecified)
19,< 0.2,Cc1cccc(NC(=O)Nc2ccc(Cl)c(Cl)c2)n1
20,5.9,CC1(C)C2CCC(C2)C1(C)N=C1OC(CCl)CS1 (stereo unspecified)
21,> 43,Cc1ccccc1NC(=S)NNC(=O)c1ccncc1
22,50.2,Cc1cc(=O)oc2cc(NC(=O)CC3(CC(=O)O)CCCC3)ccc12

row,solubility kinetic [µg/mL],SMILES
1,7.4,O=C1C(Cl)=C(N2CCCC2)C(=O)N1c1ccc(F)cc1
2,> 42.9,CC(Oc1ccccc1)C(=O)Nc1cccc([N+](=O)[O-])c1 (stereo unspecified)
3,19.4,Cc1ccc2sc(=O)[nH]c2c1
4,62.9,COCCn1c(N)c(N(Cc2ccccc2)C(=O)Cc2ccccc2F)c(=O)[nH]c1=O
5,33.5,CCOn1c(=O)c(-c2ccc(C)cc2)[n+]([O-])c2ccccc21
6,4.5,C=CCc1ccc(OC(=O)NC2CCCCC2)c(OC)c1
7,4.7,COc1ccc(C)cc1NC(=O)C1CC1c1ccccc1 (stereo unspecified)
8,27.8,COc1cc(/C=C/C(=O)OCC(=O)NCCCc2ccccc2)cc(OC)c1OC
9,37.4,OC(COc1ccc(F)cc1Cl)CN1CCc2ccccc2C1 (stereo unspecified)
10,38.1,Cc1cccc(NC(=O)c2ccc(N3CCOCC3)c([N+](=O)[O-])c2)n1
11,5.8,Cc1ccc(CN(C)C(=O)c2cccc(S(=O)(=O)N3CCc4ccccc43)c2)cc1
12,> 46.9,O=C(OCC(=O)N1CCCC1)c1cc(Cl)ccc1[N+](=O)[O-]
13,1.1,CCCCc1ccc(NC(=O)Nc2cnccn2)cc1
14,18.9,Cc1ccc(C)c(NC(=O)N2CCc3ccccc3C2)c1
15,1,O=C(Nc1ccccc1C(=O)Nc1ccccc1)c1cccs1
16,6.7,Cc1cc(NC(=O)c2ccc(-c3ccccc3[N+](=O)[O-])o2)no1
17,1.9,Cc1ccc(S(=O)(=O)N2CCN(C(=O)COC(=O)/C=C/c3ccc([N+](=O)[O-])cc3)CC2)c(C)c1
18,10.2,Cc1noc(C)c1NC(=O)NC(c1ccccc1)c1ccccc1
19,22.4,c1ccc(CNc2nc(-c3cccnc3)cs2)cc1

row,SMILES,solubility kinetic [µg/mL]
1,CCN(CC)CCOC(=O)C(O)(c1ccccc1)c1ccccc1.Cl,> 54.6
